≈ marks a conversion by molar mass, not a printed value.
Experiment: solubility of the dyes in water
Format: physicochemical
Details: excess dye stirred 1 h at 50° C., cooled to 20° C., filtered, spectroscopic determination, read-out: Solubility (in g per 100 ml)
Description: The solubilities of the dyes according to the invention were determined as follows:
An excess of dye was heated at 50° C. in water with stirring for one hour. The mixture was then cooled down to 20° C. and filtered, and the dye content of the clear solution was determined spectroscopically.
A solubility of 350 mg/mL (≈ 490 mM) was found for CN(CCO)c1nc(NCCS(=O)(=O)O)nc(Nc2ccc(N=Nc3c(N)ccc4cc(S(=O)(=O)O)cc(O)c34)c(S(=O)(=O)O)c2)n1 [compound 100] in this work.
A solubility of 320 mg/mL (≈ 430 mM) was found for Nc1ccc2cc(S(=O)(=O)O)cc(O)c2c1N=Nc1ccc(Nc2nc(NCCS(=O)(=O)O)nc(N(CCO)CCO)n2)cc1S(=O)(=O)O [compound 101] in this work.
A solubility of 260 mg/mL (≈ 340 mM) was found for Nc1ccc2cc(S(=O)(=O)O)cc(O)c2c1N=Nc1ccc(Nc2nc(NCCS(=O)(=O)O)nc(NCCS(=O)(=O)O)n2)cc1S(=O)(=O)O [compound 102] in this work.
A solubility of 200 mg/mL (≈ 281 mM) was found for COc1cc(N=Nc2c(N)ccc3cc(S(=O)(=O)O)cc(O)c23)c(C)cc1Nc1nc(NCCO)nc(Nc2cccc(S(=O)(=O)O)c2)n1 [dye 1, reference compound] in this work.
A solubility of 150 mg/mL (≈ 192 mM) was found for CCCCCCNc1nc(NCCCCCC)nc(Nc2cc(S(=O)(=O)O)cc3cc(S(=O)(=O)O)c(N=Nc4ccccc4S(=O)(=O)O)c(O)c23)n1 [dye 5, reference compound] in this work.

— patent US5824785A, “Dyes for ink jet printing” (Ilford Imaging Switzerland GmbH, priority 1995, dated 1998)
